Results from paper PMC9413440, “An Iterative Approach Guides Discovery of the FabI Inhibitor Fabimycin, a Late-Stage Antibiotic Candidate with In Vivo Efficacy against Drug-Resistant Gram-Negative Infections” (ACS Central Science, 2022).
≈ marks a conversion by molar mass, not a printed value. Like-named read-outs stand apart in the source and are kept apart here.

How the values were obtained:
[1] = target: hERG ion channel (Homo sapiens, UniProt Q12809); assay: hERG activity
[2] = target: A. baumannii FabI (Acinetobacter baumannii, UniProt D0CAD5); assay: Differential scanning fluorimetry; format: binding; conditions: relative to the holoenzyme
Description: supplemented with 100 µg/mL ampicillin at 37°C until OD600 reached 0.6-0.7. The cells were induced with 1mM IPTG and incubated for 20 hours at 18°C and spun down at 8000 rpm for 15 minutes. Cell pellet was resuspended in the lysis buffer (50 mM Tris-HCl pH 8.0, 500 mM Na Cl, 20 mM imidazole, 10% glycerol, 0.5 mM TCEP, protease inhibitor and Lysonase) and passed through microfluidizer followed by centrifugation and filtration to remove cell debris. The clarified lysate was supplemented with 20 mM imidazole and passed over a HisTrap column (Cytiva) pre-equilibrated with the wash buffer (50 mM Tris-HCl pH 8.0, 500 mM NaCl, 20 mM imidazole, 10% glycerol, 0.5 mM TCEP). The column was washed with the wash buffer and eluted over a 20-500 mM imidazole gradient. […]
Recombinant E. coli and A. baummani FabI enzymes were used in a continuous NADH absorbance assay (20 µL in 384w format). […] After shaking for 5 seconds the reaction was monitored at NADH absorbance (340nm, 25°C) using a Molecular Devices SpectraMax M5 microplate reader. The linear portion of the progress curve was fit using plate-reader software. Percentage activity was calculated relative to DMSO only and no-substrate controls in each plate and the data were fit to Morrison’s quadratic using Graphpad Prism 9.3 to obtain apparent inhibition constant (Ki app) values. […]

[3] = format: in vitro ADME
Description: Forward 5’-GGG-GCC-AGC-GTT-TCT-TTT-TC-3‘ Parker, 20203
Reverse 5’-AAA-CAT-GGA-GAC-GGT-GCT-GG
Forward 5’-GTG-AGA-TCG-GCA-TGA-CAC-AA-3’ Lin, 20179
Reverse 5’-CTG-AAG-TCC-GCT-ACC-GTT-AT-3’
Compound stability in mammalian plasma
Candidate drugs were incubated with plasma and parent drug levels were monitored at various time points (generally t=0, 10, 20, 30, and 60 minutes) to determine the drug’s half-life in the presence of the chosen system. Each drug is tested in duplicate. Compounds were diluted from 10 mM DMSO stocks to 1 µM in a 100 mM pH 7.4 phosphate buffer and incubated at 37 °C with 0.5 mg/mL of human, rat, or mouse plasma (BioreclamationIVT, Baltimore, MD). Time points were collected at 0 min (after addition of drug), 15 min, 30 min, 60 min, and 120 min following quenching with an equal volume of acetonitrile. The supernatant was collected after centrifugation, and the sample analyzed by LC-MS where the percentage of compound remaining is plotted vs time to determine the drug’s half-life.
Compound plasma protein binding
Candidate drugs were incubated with plasma and parent drug levels are monitored after 4 hours to determine the drug’s free concentration in the presence of the plasma proteins. The standard assay involves equilibrium dialysis, in which compound is allowed to equilibrate between a protein-containing compartment from a protein-free compartment. Each

[4] = system: Stenotrophomonas maltophilia ATCC 13637; assay: MIC, commensal bacteria; format: cell-based; conditions: ATCC13637
Description: (§1) II. Materials and Methods for Biological Experiments
(§2) S. aureus ATCC 29213 and E. coli MG1655 were obtained from the American Type Culture Collection (ATCC). E. coli BW25113 and E. coli JW5503 were obtained from the Keio Collection. AR-bank strains were obtained from the Centers for Disease Control and Prevention and FDA Antibiotic Resistance Isolate Bank.
(§3) Antimicrobial susceptibility tests
(§4) Susceptibility testing was performed in biological triplicate, unless noted otherwise, using the micro-dilution broth method as outlined by the Clinical and Laboratory Standards Institute. Bacteria were cultured with cation-adjusted Mueller Hinton broth (Sigma Aldrich, catalogue number: 90922). […]
(§5) Error bars represent the standard error of the mean of three biological replicates. All compounds evaluated in biological assays were ≥95% pure.

[5] = system: Streptococcus salivarius KLE 2370; assay: MIC, commensal bacteria; format: cell-based; conditions: KLE2370
Description: as §1, §2, §3, §4, §5

[6] = system: Bacteroides fragilis ATCC 25285; assay: MIC, commensal bacteria; format: cell-based; conditions: ATCC25285
Description: as §1, §2, §3, §4, §5

A. baumannii FabI, sequence (D0CAD5 entry or part of it): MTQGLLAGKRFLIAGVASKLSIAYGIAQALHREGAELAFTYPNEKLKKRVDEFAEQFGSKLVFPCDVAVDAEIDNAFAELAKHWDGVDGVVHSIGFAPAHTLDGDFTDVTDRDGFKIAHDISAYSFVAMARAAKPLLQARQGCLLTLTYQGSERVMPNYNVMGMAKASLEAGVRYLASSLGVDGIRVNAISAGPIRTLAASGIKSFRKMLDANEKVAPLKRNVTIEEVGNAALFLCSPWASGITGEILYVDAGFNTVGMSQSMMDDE
hERG ion channel, sequence (Q12809 whole entry): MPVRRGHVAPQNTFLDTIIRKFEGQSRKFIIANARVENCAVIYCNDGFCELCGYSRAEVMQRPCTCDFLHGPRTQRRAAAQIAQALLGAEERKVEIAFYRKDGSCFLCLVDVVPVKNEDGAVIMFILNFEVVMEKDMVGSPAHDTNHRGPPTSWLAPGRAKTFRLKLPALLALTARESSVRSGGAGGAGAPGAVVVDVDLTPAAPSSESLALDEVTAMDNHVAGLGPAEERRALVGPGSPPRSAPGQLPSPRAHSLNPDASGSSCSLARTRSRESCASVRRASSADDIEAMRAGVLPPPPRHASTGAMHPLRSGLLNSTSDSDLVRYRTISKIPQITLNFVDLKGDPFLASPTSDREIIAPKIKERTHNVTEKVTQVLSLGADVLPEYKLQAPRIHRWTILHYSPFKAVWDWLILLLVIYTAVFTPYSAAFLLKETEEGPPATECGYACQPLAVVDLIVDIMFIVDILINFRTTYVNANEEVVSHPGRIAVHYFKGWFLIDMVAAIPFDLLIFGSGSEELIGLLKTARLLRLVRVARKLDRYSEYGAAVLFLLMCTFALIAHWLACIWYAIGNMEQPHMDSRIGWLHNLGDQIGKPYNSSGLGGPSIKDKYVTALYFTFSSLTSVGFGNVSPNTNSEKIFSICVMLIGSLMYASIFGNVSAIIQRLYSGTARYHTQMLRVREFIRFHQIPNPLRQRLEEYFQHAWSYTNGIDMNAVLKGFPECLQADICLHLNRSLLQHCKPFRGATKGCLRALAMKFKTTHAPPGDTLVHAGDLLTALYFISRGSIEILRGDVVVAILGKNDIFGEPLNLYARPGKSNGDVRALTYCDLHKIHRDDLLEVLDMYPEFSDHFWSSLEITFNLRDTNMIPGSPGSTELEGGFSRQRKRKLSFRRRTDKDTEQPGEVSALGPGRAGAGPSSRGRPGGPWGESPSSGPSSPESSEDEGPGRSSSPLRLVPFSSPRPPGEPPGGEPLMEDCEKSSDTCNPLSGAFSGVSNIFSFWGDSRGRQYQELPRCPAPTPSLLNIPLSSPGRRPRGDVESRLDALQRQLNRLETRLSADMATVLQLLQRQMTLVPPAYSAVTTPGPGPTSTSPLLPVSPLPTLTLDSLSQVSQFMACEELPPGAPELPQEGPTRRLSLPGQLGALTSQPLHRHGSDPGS

Q: For `Cc1c(CN(C)C(=O)/C=C/c2cnc3c(c2)CC[C@H](N)C(=O)N3)oc2ccccc12` [fabimycin], which “activity against the hERG ion channel” value [1] is on record?
A: lower activity against the hERG ion channel relative to both Debio-1452 and Debio-1452-NH3

Q: And the ΔTm [2]?
A: 24 ± 0.5 °C

Q: What about the stability in plasma ([3]; human) of the same molecule?
A: excellent stability

Q: What about the stability in plasma ([3]; mouse) of the same molecule?
A: considerable instability

Q: And the stability in plasma ([3]; rat)?
A: excellent stability

Q: What about the MIC [4] of the same molecule?
A: 128 µg/mL (≈ 316 µM)

Q: What about the MIC [5] of the same molecule?
A: > 128 µg/mL

Q: And the MIC [6]?
A: > 128 µg/mL

Q: With `Cc1c(CN(C)C(=O)/C=C/c2cnc3c(c2)CC[C@@H](N)C(=O)N3)oc2ccccc12` [(R)-7] as the molecule, how does the ΔTm [2] read?
A: 18 ± 0.5 °C
